Laboratory results reported in patent US20060078598A1, “Animal feed containing an encapsulated ingredient” (CAN Technologies, Inc., priority 2002, published 2006).
Like-named read-outs stand apart in the source and are kept apart here.

Key:
[1] = feed formula with circa 1.0 wt. % sample, contacted with deionized water
Description: Equal levels of each sample (circa 1.0 wt. % based on total feed weight) were introduced into a feed formula that was placed in a vessel and contacted with deionized water.

[2] = deionized water
Description: Equal levels of each sample (circa 1.0 wt. % of methionine based on total feed weight) were introduced into a feed formula that was placed in a vessel and exposed to deionized water for an hour.

SMILES: CSCC[C@H](N)C(=O)O [Uncoated methionine, methionine]
- LEACHING LOSS AFTER 30 MINUTES [1]: 40%
- percent loss of methionine ([2]; after about 1 minute): about 15 wt. %
- percent loss of methionine ([2]; after about 5 minutes): about 22 wt. %
- percent loss of methionine ([2]; after about 15 minutes): about 30 wt. %
- percent loss of methionine ([2]; after about 60 minutes): about 43 wt. %
